Usually melting point stands for the temperature of the solid-liquid transition.

The source of these data is patent US20100204237A1, “Hydroxypyrimidinone derivatives having inhibitory activity against HIV integrase” (priority 2003, published 2010).

One series concerns the target HIV integrase (Human immunodeficiency virus type 1 group M subtype B, UniProt P04585). Briefly: inhibitory activities against integrase (Experimental Example 1). To be noted: integrase inhibition, OD405 nm plate assay; read-out: Experimental example 1 (IC50, ng/ml) (converted). Format: biochemical. The procedure:
The inhibitory activities against integrase were determined by the assay described below.
A substrate DNA, solution (2 pmol/μl) and a target DNA solution (5 pmol/μl) were prepared in the manner as described in Experimental example 1 of WO 2004/024693. Before using the DNA solutions, complementary chains were annealed by slowly cooling after boiling. Substrate DNA and target DNA had sequences as described in that Experimental example.
Streptavidin, obtained from Vector Laboratories, was dissolved in 0.1 M carbonate buffer (composition: 90 mM Na2CO3, 10 mM NaHCO3) at concentration of 40 μg/ml. After coating each well of immunoplates (obtained from NUNC) with 50 μl of the above solution at 4° C. over night, each well was washed twice with PBS (composition: 13.7 mM NaCl, 0.27 mM KCl, 0.43 mM Na2HPO4, 0.14 mM KH2PO4) and blocked with 300 μl of 1% skim milk in PBS for 30 min. Additionally, each well was washed twice with PBS and added 50 μl of substrate DNA solution (2 pmol/μl). The immunoplates were kept at room temperature for 30 min while shaking. Then, each well was washed twice with PBS and once with H2O.
Subsequently, in the each well prepared above were added 51 μl of the reaction solution prepared from 12 μl of the buffer (composition: 150 mM MOPS (pH 7.2), 75 mM MnCl2, 50 mM 2-mercaptoethanol, 25% glycerol, 500 μg/ml bovine serum albumin-fraction V), and 39 μl of the distilled water. Then 9 μl of an integrase solution (30 pmol) was added and mixed well. In the well of negative control (NC) was added 9 μl of the integrase dilution buffer (composition: 20 mM MOPS (pH7.2), 400 mM potassium glutamate, 1 mM EDTA, 0.1% NP-40, 20% glycerol, 1 mM DTT, 4M urea), and mixed well using a plate mixer.
The plates were incubated at 30° C. for 60 minutes. The reaction solution was removed and washed three times with 250 μl of washing buffer (composition: 150 mM MOPS (pH7.2), 50 mM 2-mercaptoethanol, 25% glycerol, 500 μg/ml bovine serum albumin-fraction V).
Then each well was added with 53 μl of reaction solution prepared from 12 μl of buffer (composition: 150 mM MOPS (pH7.2), 75 mM MgCl2, 50 mM 2-mercaptoethanol, 25% glycerol, 500 μg/ml bovine serum albumin-fraction V) and 41 μl of distilled water. Further, each well was added with 6 μl of DMSO solution of a compound to be tested, and the well of positive control (PC) was added with 6 μl of DMSO, and mixed well by a plate mixer. After incubating the plate for 30 minutes at 30° C., was added 1 μl of target DNA (5 pmol/μl), and mixed well by a plate mixer.
After incubation for 10 minutes at 30° C., each plate was washed twice with PBS after removal of the reaction solution. […] The optical density at 405 nm (OD405 nm) of each well was measured and the inhibition rate (IC50) was determined by the following expression. […]

For another series, the system named is HIV (HTLV-IIIB strain). Briefly: inhibitory activities against HIV cell proliferation, MT-4 cells, MTT (Experimental Example 2). Type of series: cell-based. To be noted: Human immunodeficiency virus 1, IIIB, MT4, 96 h, concentration at which 50% of cytopathy caused by viruses was inhibited, 4 days, read-out: Experimental example 2 (EC50, ng/ml). The method, then: The inhibitory activities against HIV cell proliferation were determined by the assay method described below. • (1) HIV (HTLV-IIIB strain) persistence infection human T-cell strain Molt-4 clone 8 was cultured on RPMI-1640 medium supplemented with 10% fetal bovine serum, and the supernatant was measured for viral titer after filtration, and stored at −80° C. On the other hand, each anti-HIV active agent was diluted in the above culture medium to a predetermined concentration, and each well of a 96-well microplate was added with 50 μl of the resultant active agent solution. Then, 100 μl (3.5×10^4 cells) each of MT-4 cell suspension was poured into each well, followed by each 50 μl (60 pfu (plaque forming unit)) of the HIV-containing supernatant diluted with the above culture medium. • (2) After incubating for 4 days in a carbon dioxide incubator at 37° C., every well was added with 30 μl of 3-(4,5-dimethylthiazole-2-yl)-2,5-diphenyltetrazolium bromide (MTT) 5 mg/ml), PBS, and incubated for another 1 hour. At this time, since living cells reduce MTT to cause precipitation of formazane, 150 μl of cell supernatant was removed from each well, and instead 150 μl of lysis solution (isopropanol supplemented with 10% Triton X-100 and 0.4% (v/v) HCl) was added, to make formazane eluate by shaking with a plate mixer. […] The concentration of Compound at which 50% of cytopathy caused by viruses was inhibited was defined as EC50.

In brackets after ≈: the same amount, converted by molar mass.

As for `Cc1nc(-c2nnc(Cc3ccc(F)cc3)o2)c(O)c(=O)[nH]1` [Comparative example 1, reference compound], the IC50 on HIV integrase was 92.6 nM. Further, the EC50 with HIV (HTLV-IIIB strain) was found to be 19000 ng/mL (≈ 62.9 µM).

`CC(=O)N1CCC[C@H]1c1nc(-c2nnc(Cc3ccc(F)cc3)o2)c(O)c(=O)n1C` [Compound I-2] returned a melting point of 170 to 172 °C. For the same compound, the IC50 at HIV integrase is 138 nM. Further, in the series with HIV (HTLV-IIIB strain), the EC50 turned out to be 38 ng/mL (≈ 0.0919 µM).

As to `CN(C(=O)c1ccccn1)C(C)(C)c1nc(-c2ncc(Cc3ccc(F)cc3)s2)c(O)c(=O)[nH]1` [Compound I-45], the melting point turned out to be 245 °C. Besides, at HIV integrase, the IC50 is 12.1 nM. In the series on HIV (HTLV-IIIB strain), the EC50 is 5.6 ng/mL (≈ 0.0117 µM).

Consider `CCN1C(C)n2c(nc(-c3ncc(Cc4ccc(F)cc4)s3)c(O)c2=O)C1(C)C` (centres unmarked) [Compound I-60], for which the melting point is 165 to 168 °C. For the same compound, on HIV integrase, the IC50 is 15.9 nM. The EC50 with HIV (HTLV-IIIB strain) was 18 ng/mL (≈ 0.0434 µM).
